Values after ≈ are worked out from the molar mass of the structure shown.
What was measured:
[1] = Half life in acetate buffer at pH 4; type: physicochemical; conditions: for t1/2: buffer; for half-life: acetate buffer
[2] = Half life in phosphate buffer at pH 6.5; type: physicochemical; conditions: for t1/2: buffer; for half-life: phosphate buffer
[3] = Solubility of compound in 0.1 N aqueous HCl buffer at pH 1; type: physicochemical
[4] = Solubility of compound in acetate buffer at pH 4; type: physicochemical
[5] = Cmax in Sprague-Dawley rat assessed as atazanavir level at 3 mg/kg equiv of atazanavir administered orally; type: ADME, organism-based; parameters: route oral, dose 3 mg/kg(equiv); conditions: in vivo, po
[6] = Tmax in Sprague-Dawley rat assessed as atazanavir level at 3 mg/kg equiv of atazanavir administered orally; type: ADME, organism-based; conditions: in vivo, po
[7] = AUClast in Sprague-Dawley rat assessed as atazanavir level at 3 mg/kg equiv of atazanavir administered orally; type: ADME, organism-based; parameters: route oral, time 0 - last, dose 3 mg/kg(equiv); conditions: in vivo, po
[8] = Trough plasma concentration in Sprague-Dawley rat assessed as atazanavir level at 3 mg/kg equiv of atazanavir administered orally measured after 24 hrs; type: ADME, organism-based; conditions: in vivo, po; for concentration: read-out: Cmin; for Cmin: BLD = below limit of detection
[9] = Relative oral bioavailability in Sprague-Dawley rat assessed as atazanavir level at 3 mg/kg equiv of atazanavir; type: ADME, organism-based; conditions: in vivo
[10] = Total AUC in Sprague-Dawley rat assessed as ratio of atazanavir to parent level at 3 mg/kg equiv of atazanavir administered orally; type: ADME, organism-based; conditions: in vivo, po
[11] = Ratio of AUClast in Sprague-Dawley rat assessed as atazanavir to parent level at 3 mg/kg equiv of atazanavir administered orally; type: ADME, organism-based; conditions: in vivo, po
[12] = Solubility of compound in fasted state simulated intestinal fluid; type: physicochemical; conditions: simulated gi fluid
[13] = Stability in rat plasma measured after 60 mins; type: ADME, cell-free; conditions: 1 h
[14] = Half life in 0.1 N aqueous HCl buffer at pH 1; type: physicochemical; conditions: for half-life: 0.1 N aqueous HCl buffer
[15] = Solubility of compound in phosphate buffer at pH 6.5; type: physicochemical
[16] = Half life in rat hepatocytes measured after 120 mins; type: ADME, cell-based, Hepatocyte
[17] = Half life in rat plasma measured after 60 mins; type: ADME, cell-free
[18] = Stability of compound in 0.1 N aqueous HCl buffer at pH 1; type: physicochemical
[19] = Stability of compound in acetate buffer at pH 4; type: physicochemical
[20] = Stability of compound in phosphate buffer at pH 6.5; type: physicochemical
[21] = Trough plasma concentration in Sprague-Dawley rat at 30 mg/kg, po measured after 24 hrs; type: ADME, organism-based; conditions: read-out: Cmin
[22] = 0.1 N aqueous HCl buffer, read-out: solubility
[23] = acetate buffer, read-out: solubility

Structure (SMILES) | t1/2 [2] [h] | solubility ([3]; buffer) [µg/mL] | Cmax [5] [nM] | Tmax [6] [h] | AUClast [7] [µM·h] | concentration [8] [nM] | F [9] [%] | Ratio AUC [10] | Ratio AUC [11] | half-life [14] [h] | half-life [1] [h] | solubility [3, 22] [µg/mL] | solubility [4, 23] [µg/mL] | solubility [15] [µg/mL] | also measured
COC(=O)N[C@H](C(=O)N[C@@H](Cc1ccccc1)[C@H](CN(Cc1ccc(-c2ccccn2)cc1)NC(=O)[C@@H](NC(=O)OC)C(C)(C)C)OC(=O)OC(C)OC(=O)[C@H](C(C)C)N(C)C)C(C)(C)C (stereo in doubt; 22) | 214.9 | > 1800 | 398 | 0.8 | 1.958 | 16.7 | 103 | 92.1 | 17 |  |  |  |  |  | t1/2 [1]: 334.3 h; solubility ([4]; buffer): > 490 µg/mL; solubility [12]: 11 µg/mL (≈ 12 µM); Stabilty [13]: Stable
COC(=O)N[C@H](C(=O)N[C@@H](Cc1ccccc1)[C@H](CN(Cc1ccc(-c2ccccn2)cc1)NC(=O)[C@@H](NC(=O)OC)C(C)(C)C)OC(=O)OC(C)OC(=O)[C@@H](C(C)C)N(C)C)C(C)(C)C (stereo in doubt; 24) |  | > 2600 | 324 | 0.5 | 1.737 | 24 | 91 | 104.8 | 22 |  |  |  |  |  | t1/2 ([14]; buffer): > 500 h; solubility ([4]; buffer): > 540 µg/mL
COC(=O)N[C@H](C(=O)N[C@@H](Cc1ccccc1)[C@H](CN(Cc1ccc(-c2ccccn2)cc1)NC(=O)[C@@H](NC(=O)OC)C(C)(C)C)OC(=O)OC(C)OC(=O)[C@@H](N)C(C)C)C(C)(C)C (stereo in doubt; 20) | 5.3 | > 3200 |  |  |  |  |  |  |  |  |  |  |  |  | t1/2 [1]: 334.3 h; solubility ([4]; buffer): > 1800 µg/mL
COC(=O)N[C@H](C(=O)N[C@@H](Cc1ccccc1)[C@H](CN(Cc1ccc(-c2ccccn2)cc1)NC(=O)[C@@H](NC(=O)OC)C(C)(C)C)OC(=O)OCOC(=O)[C@@H](N)Cc1ccccc1)C(C)(C)C |  |  |  |  |  |  |  |  |  | 17 | 16.5 |  |  |  | 
COC(=O)N[C@H](C(=O)N[C@@H](Cc1ccccc1)[C@H](CN(Cc1ccc(-c2ccccn2)cc1)NC(=O)[C@@H](NC(=O)OC)C(C)(C)C)OC(=O)OC(C)OC(=O)[C@@H](C(C)C)N(C)C)C(C)(C)C (stereo in doubt; 23) |  |  |  |  |  |  |  |  |  | > 500 | > 500 | > 1700 | > 600 | < 1 | half-life [2]: > 500 h
COC(=O)N[C@H](C(=O)N[C@@H](Cc1ccccc1)[C@H](CN(Cc1ccc(-c2ccccn2)cc1)NC(=O)[C@@H](NC(=O)OC)C(C)(C)C)OC(=O)OC(C)OC(=O)[C@H](C(C)C)N(C)C)C(C)(C)C (stereo in doubt; 21) | > 500 |  | 581 | 0.6 | 1.097 | 1.9 | 58 | 5.7 | 1 | > 500 | > 500 | > 1900 | > 980 | < 1 | solubility [12]: 3 µg/mL (≈ 3.26 µM); half-life [16]: 0.417 h; half-life [17]: 0.683 h
COC(=O)N[C@H](C(=O)N[C@@H](Cc1ccccc1)[C@H](CN(Cc1ccc(-c2ccccn2)cc1)NC(=O)[C@@H](NC(=O)OC)C(C)(C)C)OC(=O)OCOC(=O)[C@H](C(C)C)N(C)C)C(C)(C)C |  |  | 573 | 0.4 | 0.883 | 1.9 | 46 | 7.7 | 2.3 | > 500 | > 500 | > 1200 | > 450 | 5 (≈ 5.52 µM) | half-life [2]: 104 h
COC(=O)N[C@H](C(=O)N[C@@H](Cc1ccccc1)[C@H](CN(Cc1ccc(-c2ccccn2)cc1)NC(=O)[C@@H](NC(=O)OC)C(C)(C)C)OC(=O)OCOC(=O)[C@@H](N)C(C)C)C(C)(C)C |  |  |  |  |  |  |  |  |  |  |  |  |  |  | Stabilty [18]: Unstable; Stabilty [19]: Unstable; Stabilty [20]: Unstable
COC(=O)N[C@H](C(=O)N[C@@H](Cc1ccccc1)[C@H](CN(Cc1ccc(-c2ccccn2)cc1)NC(=O)[C@@H](NC(=O)OC)C(C)(C)C)OC(=O)OCOC(=O)[C@@H](C(C)C)N(C)C)C(C)(C)C |  |  | 639 | 0.5 | 0.689 |  | 36 | 5.3 | 2 | > 500 | 376 | > 1800 | > 500 | 6 (≈ 6.62 µM) | half-life [2]: 64 h; Cmin [8]: Bld
COC(=O)N[C@H](C(=O)N[C@@H](Cc1ccccc1)[C@H](CN(Cc1ccc(-c2ccccn2)cc1)NC(=O)[C@@H](NC(=O)OC)C(C)(C)C)OC(=O)OC(C)OC(=O)[C@@H](N)C(C)C)C(C)(C)C (stereo in doubt; 18) | > 10.9 | > 1200 | 320 | 0.8 | 1.013 |  | 53 | 2.6 |  | > 500 | > 500 |  | > 3000 |  | Cmin [8]: Bld
COC(=O)N[C@H](C(=O)N[C@@H](Cc1ccccc1)[C@@H](O)CN(Cc1ccc(-c2ccccn2)cc1)NC(=O)[C@@H](NC(=O)OC)C(C)(C)C)C(C)(C)C [ATAZANAVIR] |  |  |  |  |  |  |  |  |  |  |  |  | < 1 | < 1 | concentration at 24 h [21]: 5 nM

Source: ChEMBL document CHEMBL4706615, “(Carbonyl)oxyalkyl linker-based amino acid prodrugs of the HIV-1 protease inhibitor atazanavir that enhance oral bioavailability and plasma trough concentration” (Eur J Med Chem, 2020)
